Measurements reported in ChEMBL document CHEMBL1201862, “PubChem BioAssay data set” (2004).
Activity calls are given as the source filed them.

Experiments:
[1] = cells; assay type: functional, cell-based
[2] = cells; assay type: functional, cell-based; remark: listed apart in the source
[3] = target: Glyceraldehyde-3-phosphate dehydrogenase (Homo sapiens, UniProt P04406)
[4] = system: Escherichia coli; test: microbe, parasite or virus in culture
[5] = cytotoxicity in HEK-293T cells, dose response, cytotoxicity control for TCR NF-kB inhibitor project, luminescence, T-cell screen hits (AID 489026); assay type: functional, cell-based;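 also: cells exposed to compound about 14 hours before the viability readout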
[6] = inhibitors of intracellular T. cruzi replication, confirmation, NIH3T3 host cells, beta-gal luminescence (AID 2044); assay type: functional, cell-based;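 also: intracellular parasites grown in NIH/3T3 mouse fibroblasts as host cells; luminescent beta-galactosidase reporter signal from transgenic T. cruzi replicating inside host cells; inhibitors lower the luminescence signal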
[7] = cytotoxicity toward NIH3T3 fibroblasts, dose response, counter-screen, cell-based, ATP luminescence, mouse fibroblasts (AID 2010); assay type: functional;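 also: cells exposed to compound for about 90 hours before reading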
[8] = target: T1, Short transient receptor potential channel 4 (Mus musculus, UniProt Q9QUQ5); test: mouse TRPC4 channel inhibitors, dose response, cell-based, HEK293 TRPC4/mu-opioid, Fluo-4 calcium (AID 434942); assay type: functional;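 also: potency of inhibitors blocking the TRPC4 calcium response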
T1 sequence (Q9QUQ5 whole entry): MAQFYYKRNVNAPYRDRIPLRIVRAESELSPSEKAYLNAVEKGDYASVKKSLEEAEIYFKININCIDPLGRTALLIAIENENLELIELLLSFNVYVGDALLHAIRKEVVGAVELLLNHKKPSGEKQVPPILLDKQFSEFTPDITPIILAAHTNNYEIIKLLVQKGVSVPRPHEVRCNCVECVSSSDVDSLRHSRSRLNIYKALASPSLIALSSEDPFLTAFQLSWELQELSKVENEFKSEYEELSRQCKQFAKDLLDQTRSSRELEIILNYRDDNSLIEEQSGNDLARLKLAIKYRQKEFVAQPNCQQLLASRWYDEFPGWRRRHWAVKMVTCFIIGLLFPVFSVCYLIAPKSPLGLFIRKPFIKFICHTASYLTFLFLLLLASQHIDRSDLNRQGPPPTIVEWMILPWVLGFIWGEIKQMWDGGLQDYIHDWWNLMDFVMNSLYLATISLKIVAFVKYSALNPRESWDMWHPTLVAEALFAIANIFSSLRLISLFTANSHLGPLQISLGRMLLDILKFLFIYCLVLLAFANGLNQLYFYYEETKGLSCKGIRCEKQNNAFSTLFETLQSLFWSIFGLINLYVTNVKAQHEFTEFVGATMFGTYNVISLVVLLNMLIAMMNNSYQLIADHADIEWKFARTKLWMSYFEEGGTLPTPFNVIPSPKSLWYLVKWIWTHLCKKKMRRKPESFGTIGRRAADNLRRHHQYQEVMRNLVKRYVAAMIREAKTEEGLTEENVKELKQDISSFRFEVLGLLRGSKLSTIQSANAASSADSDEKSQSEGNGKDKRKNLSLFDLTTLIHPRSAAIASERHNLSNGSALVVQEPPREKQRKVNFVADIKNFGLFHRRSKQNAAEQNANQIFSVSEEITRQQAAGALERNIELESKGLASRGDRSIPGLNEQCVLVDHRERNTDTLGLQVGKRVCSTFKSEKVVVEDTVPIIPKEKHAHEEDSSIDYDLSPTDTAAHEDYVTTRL

[9] = target: Cytochrome P450 3A4 (Homo sapiens, UniProt P08684);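 also: CYP3A4 tested as one member of a cytochrome P450 panel screen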
Cytochrome P450 3A4, sequence (P08684 whole entry): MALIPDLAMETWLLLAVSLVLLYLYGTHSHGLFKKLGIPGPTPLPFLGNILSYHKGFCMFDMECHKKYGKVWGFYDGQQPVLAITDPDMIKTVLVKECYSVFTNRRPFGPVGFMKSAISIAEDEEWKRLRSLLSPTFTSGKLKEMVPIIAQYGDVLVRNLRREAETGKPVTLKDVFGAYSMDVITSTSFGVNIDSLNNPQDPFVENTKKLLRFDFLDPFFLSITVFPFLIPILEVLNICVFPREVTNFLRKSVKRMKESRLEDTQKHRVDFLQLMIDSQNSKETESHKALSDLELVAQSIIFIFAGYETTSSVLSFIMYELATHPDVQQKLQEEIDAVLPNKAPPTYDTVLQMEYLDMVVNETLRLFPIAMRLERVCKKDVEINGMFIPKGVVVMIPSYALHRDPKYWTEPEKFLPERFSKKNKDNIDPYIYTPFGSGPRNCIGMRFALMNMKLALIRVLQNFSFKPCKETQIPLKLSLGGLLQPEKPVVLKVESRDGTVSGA

[10] = target: Cytochrome P450 2C19 (Homo sapiens, UniProt P33261); test: Cytochrome panel assay with activity outcomes. Panel member name: p450-cyp2c19 Compounds with AC50 equal or less than 10 uM are considered active; assay type: functional; conditions: read-out: AC50
Cytochrome P450 2C19, sequence (P33261 whole entry): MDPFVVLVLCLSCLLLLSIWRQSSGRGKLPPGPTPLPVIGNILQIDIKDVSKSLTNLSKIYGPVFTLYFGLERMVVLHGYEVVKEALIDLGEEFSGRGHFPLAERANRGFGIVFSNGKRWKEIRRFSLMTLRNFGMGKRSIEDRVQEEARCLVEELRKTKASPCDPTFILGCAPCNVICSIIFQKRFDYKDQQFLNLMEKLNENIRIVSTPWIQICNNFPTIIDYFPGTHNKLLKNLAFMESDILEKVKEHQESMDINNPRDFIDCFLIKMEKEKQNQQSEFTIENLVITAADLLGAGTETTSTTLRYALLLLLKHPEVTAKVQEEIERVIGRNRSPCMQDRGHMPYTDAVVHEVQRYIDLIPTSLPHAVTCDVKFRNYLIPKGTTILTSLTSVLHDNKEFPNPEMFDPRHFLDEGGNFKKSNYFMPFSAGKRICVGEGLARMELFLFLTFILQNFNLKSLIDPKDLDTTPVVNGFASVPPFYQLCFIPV

[11] = target: T2, Cytochrome P450 1A2 (Homo sapiens, UniProt P05177);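 also: PubChem cytochrome P450 panel assay, CYP1A2 panel member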
T2 sequence (P05177 whole entry): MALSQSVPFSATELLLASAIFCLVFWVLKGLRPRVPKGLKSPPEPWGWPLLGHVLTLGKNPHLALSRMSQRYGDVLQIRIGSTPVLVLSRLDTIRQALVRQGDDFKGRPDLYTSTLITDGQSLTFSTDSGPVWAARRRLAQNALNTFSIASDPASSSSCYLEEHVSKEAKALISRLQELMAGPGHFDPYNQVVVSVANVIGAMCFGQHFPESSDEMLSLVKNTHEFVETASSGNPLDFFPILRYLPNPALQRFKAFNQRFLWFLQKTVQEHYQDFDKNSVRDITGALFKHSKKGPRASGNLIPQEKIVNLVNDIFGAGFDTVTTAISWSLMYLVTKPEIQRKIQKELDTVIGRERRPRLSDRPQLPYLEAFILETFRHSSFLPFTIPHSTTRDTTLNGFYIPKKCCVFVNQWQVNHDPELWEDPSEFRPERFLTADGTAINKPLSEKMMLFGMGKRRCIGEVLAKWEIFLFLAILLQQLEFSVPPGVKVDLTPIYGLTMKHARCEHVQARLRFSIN

[12] = A549 cell cytotoxicity, dose response, cytotoxicity control, plate reader, cherry-pick, antagonist series (AID 743412); assay type: functional, cell-based
[13] = target: T3, Leucine aminopeptidase (Plasmodium falciparum 3D7, UniProt Q8IL11); test: P. falciparum M17LAP inhibitors, primary screen, biochemical, fluorogenic H-Leu-NHMec substrate, 1536-well (AID 1619); assay type: functional
T3 sequence (Q8IL11 whole entry): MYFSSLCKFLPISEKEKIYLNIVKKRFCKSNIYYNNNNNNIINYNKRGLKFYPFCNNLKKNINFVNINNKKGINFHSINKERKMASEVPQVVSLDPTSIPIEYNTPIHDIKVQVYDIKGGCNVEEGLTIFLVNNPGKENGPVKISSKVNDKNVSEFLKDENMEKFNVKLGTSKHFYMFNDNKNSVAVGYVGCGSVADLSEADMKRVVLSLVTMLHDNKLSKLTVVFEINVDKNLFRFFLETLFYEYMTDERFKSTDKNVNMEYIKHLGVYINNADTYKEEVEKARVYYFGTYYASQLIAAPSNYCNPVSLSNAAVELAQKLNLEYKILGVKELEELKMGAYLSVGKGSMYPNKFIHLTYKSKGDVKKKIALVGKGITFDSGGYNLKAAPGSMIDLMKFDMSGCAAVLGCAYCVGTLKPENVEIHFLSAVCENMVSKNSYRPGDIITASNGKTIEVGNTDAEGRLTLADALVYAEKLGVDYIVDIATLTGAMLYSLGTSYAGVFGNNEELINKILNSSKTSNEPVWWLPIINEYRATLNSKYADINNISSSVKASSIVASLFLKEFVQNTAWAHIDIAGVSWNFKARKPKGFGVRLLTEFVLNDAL

[14] = target: T4, Alkaline phosphatase, tissue-nonspecific isozyme (Homo sapiens, UniProt P05186); test: human TNAP enzyme inhibitors, SAR follow-up, biochemical, luminescent, dose response (AID 1056)
T4 sequence (P05186 whole entry): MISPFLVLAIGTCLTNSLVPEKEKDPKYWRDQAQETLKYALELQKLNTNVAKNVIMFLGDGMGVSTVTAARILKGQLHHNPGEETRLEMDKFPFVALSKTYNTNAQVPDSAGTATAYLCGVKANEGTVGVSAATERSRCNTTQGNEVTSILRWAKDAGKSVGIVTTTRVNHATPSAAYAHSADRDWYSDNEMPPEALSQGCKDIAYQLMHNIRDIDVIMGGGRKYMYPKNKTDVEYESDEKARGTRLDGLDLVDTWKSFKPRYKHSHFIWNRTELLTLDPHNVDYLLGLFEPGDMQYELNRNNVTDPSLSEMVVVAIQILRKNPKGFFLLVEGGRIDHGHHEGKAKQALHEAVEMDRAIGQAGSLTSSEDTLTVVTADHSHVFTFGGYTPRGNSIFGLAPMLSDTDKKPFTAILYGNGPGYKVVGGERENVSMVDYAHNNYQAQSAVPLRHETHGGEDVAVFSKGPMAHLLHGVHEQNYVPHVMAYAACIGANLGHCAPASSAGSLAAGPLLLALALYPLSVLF

[15] = target: Cytochrome P450 2C9 (Homo sapiens, UniProt P11712)
Cytochrome P450 2C9, sequence (P11712 whole entry): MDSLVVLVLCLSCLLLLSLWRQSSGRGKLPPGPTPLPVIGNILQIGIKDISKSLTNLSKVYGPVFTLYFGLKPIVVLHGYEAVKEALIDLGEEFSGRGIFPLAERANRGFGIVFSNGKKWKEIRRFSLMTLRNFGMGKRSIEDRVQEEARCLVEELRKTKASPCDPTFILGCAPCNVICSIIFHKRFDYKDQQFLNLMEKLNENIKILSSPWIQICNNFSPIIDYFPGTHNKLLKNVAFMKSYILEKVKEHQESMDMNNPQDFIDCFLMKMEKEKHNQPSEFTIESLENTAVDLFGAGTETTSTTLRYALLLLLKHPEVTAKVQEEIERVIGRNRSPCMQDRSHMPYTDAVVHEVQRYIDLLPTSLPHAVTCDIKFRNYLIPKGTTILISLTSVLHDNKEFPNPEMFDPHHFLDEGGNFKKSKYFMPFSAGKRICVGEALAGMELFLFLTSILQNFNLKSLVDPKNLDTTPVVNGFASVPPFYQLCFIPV

[16] = target: T5, Streptokinase A (Streptococcus pyogenes serotype M1, UniProt P10520); test: S. pyogenes streptokinase expression inhibitors, potency, dose response, plasminogen activation absorbance, OD405 (AID 1914); assay type: functional, Streptococcus pyogenes M1 GAS;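 also: secreted streptokinase activity via plasminogen activation per viability signal from cell pellet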
T5 sequence (P10520 whole entry): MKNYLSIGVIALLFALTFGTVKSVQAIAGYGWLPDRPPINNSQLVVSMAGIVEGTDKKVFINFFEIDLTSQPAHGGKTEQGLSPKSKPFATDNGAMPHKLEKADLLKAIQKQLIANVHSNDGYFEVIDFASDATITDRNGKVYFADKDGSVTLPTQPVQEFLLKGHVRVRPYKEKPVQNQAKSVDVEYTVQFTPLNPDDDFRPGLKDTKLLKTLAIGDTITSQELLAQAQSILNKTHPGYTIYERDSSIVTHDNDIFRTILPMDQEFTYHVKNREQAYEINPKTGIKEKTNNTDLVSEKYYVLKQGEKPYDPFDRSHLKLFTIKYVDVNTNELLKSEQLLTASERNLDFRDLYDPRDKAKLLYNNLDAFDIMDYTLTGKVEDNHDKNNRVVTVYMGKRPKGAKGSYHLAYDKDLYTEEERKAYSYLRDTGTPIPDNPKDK

[17] = target: T6, Histone-lysine N-methyltransferase NSD2 (Homo sapiens, UniProt O96028); assay type: biochemical
T6 sequence (O96028 whole entry): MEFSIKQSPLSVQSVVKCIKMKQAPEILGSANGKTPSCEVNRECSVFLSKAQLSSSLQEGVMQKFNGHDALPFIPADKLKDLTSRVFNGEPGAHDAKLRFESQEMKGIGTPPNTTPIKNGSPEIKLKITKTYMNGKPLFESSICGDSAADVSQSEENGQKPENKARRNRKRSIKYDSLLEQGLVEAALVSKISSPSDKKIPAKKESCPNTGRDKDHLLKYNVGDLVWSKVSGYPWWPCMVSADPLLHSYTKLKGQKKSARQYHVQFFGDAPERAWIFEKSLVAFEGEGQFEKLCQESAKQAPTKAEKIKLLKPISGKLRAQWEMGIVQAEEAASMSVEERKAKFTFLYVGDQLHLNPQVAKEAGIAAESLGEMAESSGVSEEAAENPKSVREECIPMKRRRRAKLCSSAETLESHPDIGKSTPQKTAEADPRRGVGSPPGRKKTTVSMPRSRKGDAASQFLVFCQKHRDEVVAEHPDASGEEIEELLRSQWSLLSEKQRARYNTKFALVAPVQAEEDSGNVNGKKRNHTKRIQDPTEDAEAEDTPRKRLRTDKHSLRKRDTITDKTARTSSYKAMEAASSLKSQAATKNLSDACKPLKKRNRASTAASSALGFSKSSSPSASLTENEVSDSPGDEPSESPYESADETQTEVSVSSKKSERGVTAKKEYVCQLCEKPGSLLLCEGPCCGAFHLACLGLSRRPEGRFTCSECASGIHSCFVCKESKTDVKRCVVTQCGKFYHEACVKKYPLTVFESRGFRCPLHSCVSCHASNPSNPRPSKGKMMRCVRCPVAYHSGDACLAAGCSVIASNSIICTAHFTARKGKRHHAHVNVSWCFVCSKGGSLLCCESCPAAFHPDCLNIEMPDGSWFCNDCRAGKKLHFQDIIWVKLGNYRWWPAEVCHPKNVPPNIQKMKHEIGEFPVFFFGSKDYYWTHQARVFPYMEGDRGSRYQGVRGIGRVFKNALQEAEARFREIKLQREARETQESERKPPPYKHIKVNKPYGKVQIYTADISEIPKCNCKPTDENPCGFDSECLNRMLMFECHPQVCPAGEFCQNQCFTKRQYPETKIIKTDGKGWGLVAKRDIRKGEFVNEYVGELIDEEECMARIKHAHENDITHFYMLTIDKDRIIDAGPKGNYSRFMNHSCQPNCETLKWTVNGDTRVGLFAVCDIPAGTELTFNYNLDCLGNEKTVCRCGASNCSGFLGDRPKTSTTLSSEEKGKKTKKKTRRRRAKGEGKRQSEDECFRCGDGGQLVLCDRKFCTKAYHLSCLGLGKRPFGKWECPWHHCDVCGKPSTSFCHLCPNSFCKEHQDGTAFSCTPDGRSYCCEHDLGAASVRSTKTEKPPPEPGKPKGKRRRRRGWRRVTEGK

Glyceraldehyde-3-phosphate dehydrogenase, sequence (P04406 whole entry): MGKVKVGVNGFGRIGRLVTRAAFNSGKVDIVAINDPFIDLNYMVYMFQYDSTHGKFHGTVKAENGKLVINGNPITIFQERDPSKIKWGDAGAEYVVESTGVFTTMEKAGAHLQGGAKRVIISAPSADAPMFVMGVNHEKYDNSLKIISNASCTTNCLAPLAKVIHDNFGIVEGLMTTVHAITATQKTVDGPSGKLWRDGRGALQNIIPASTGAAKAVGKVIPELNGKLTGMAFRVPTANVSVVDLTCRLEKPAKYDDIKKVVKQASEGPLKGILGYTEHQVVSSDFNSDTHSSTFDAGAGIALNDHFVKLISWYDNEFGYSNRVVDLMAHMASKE

With `COc1ccc(Cl)c(OC)c1C(=O)NC(=O)Nc1c(F)cc(F)cc1F` the EC50 [1] was > 350 µM (not active) and the EC50 [2] was > 350 µM (not active).

For `COC(=O)C1Nc2cc(C(F)(F)F)ccc2S(=O)(=O)N1` (stereo not drawn), the IC50 [3] was > 100 µM (not active).

In the case of `COc1ccc(N2CCN(C(=O)C3COc4ccccc4O3)CC2)cc1` (stereo not drawn), the EC50 [1] is reported as > 350 µM (not active) and the EC50 [2] is reported as > 350 µM (not active).

In the case of `CCN1CCN(C(=O)C(NS(=O)(=O)c2ccc3nc(C)sc3c2)C(C)C)CC1` (stereo not drawn), the AC50 [4] is reported as > 150 µM (inactive).

With `CC(C)Nc1ccc(C(CC(N)=O)NC(=O)c2ccc(Br)cc2)cc1[N+](=O)[O-]` (stereo not drawn) the IC50 [5] was > 80 µM (inactive).

With `CN1/C(=C\C(=O)C[n+]2ccc3ccccc3c2)C(C)(C)c2ccccc21` the EC50 [6] was 0.505 µM (active), the EC50 [7] was > 60 µM (not active) and the EC50 [8] was 5.31 µM (active). For the same molecule, the IC50 [5] was > 80 µM (inactive).

In the case of `O=C(CCNC(=O)Cn1ccc2ccccc2c1=O)NCCCN1CCN(c2ccc(F)cc2)CC1`, the AC50 [9] is reported as “inconclusive”.

In the case of `O=C(Oc1ccccc1)N1CCC2(CC1)CN(c1ccccc1)C2`, the AC50 [10] is reported as 15.8 µM (inconclusive), the AC50 [11] is reported as 15.8 µM (inconclusive) and the AC50 [9] is reported as “inconclusive”.

For `C[C@@H]1CN([C@@H](C)CO)S(=O)(=O)c2ccc(C3=CCCC3)cc2O[C@H]1CN(C)C(=O)c1ccccc1`, the AC50 [12] was 38.9 µM (active).

In the case of `CC(C)N(C(C)C)S(=O)(=O)c1ccc(N2CCc3ccccc3C2)nc1`, the EC50 [1] is reported as > 350 µM (not active) and the EC50 [2] is reported as > 350 µM (not active).

In the case of `Cc1cc(C(=O)OCC(=O)N2C(C)CCCC2C)c(C)o1` (stereo not drawn), the IC50 [13] is reported as 14.3 µM (active).

In the case of `CCc1ccc(-c2cc(C(=O)O)[nH]n2)cc1`, the IC50 [3] is reported as > 100 µM (not active) and the IC50 [14] is reported as 17.6 µM (active).

With `CC1=C(C)CC(C(=O)Nc2nc(-c3ccc(C)cc3C)c(C)s2)C(C(=O)O)C1` (stereo not drawn) the IC50 [13] was 3.71 µM (active).

In the case of `COc1ccc(NC(=O)N2CCC3(CC2)CCN(C(=O)c2cccn2C)CC3)cc1`, the AC50 [9] is reported as “inconclusive”.

With `C[C@H]1CCCC=CC2C[C@H](OC(=O)CN(C)C)C[C@@H]2[C@@H](O)/C=C\C(=O)O1` (stereo partly drawn) the AC50 [9] was “inconclusive” and the AC50 [15] was “inconclusive”.

In the case of `CN(C(=O)CSc1nc(-c2ccc(C(C)(C)C)cc2)c(C#N)c(=O)[nH]1)C1CCCCC1`, the EC50 [16] is reported as > 150 µM (not active), the EC50 [8] is reported as 9.44 µM (active) and the AC50 [17] is reported as 12.6 µM (active).
